Reference: patent US5580956A, “Phospholipase C-inhibiting peptides” (priority 1992, dated 1996)
Peptide text beside a SMILES is read from it. * marks the point of attachment. Benzoyl(2,5-(OH)2) = O=C(c1cc(O)ccc1O)*; Benzoyl(2,3-diOH) = O=C(c1cccc(O)c1O)*; Propanoyl(3-cPent) = O=C(CCC1CCCC1)*; Nonanoyl = CCCCCCCCC(=O)*; Octanoyl = CCCCCCCC(=O)*; X1 = O=C(c1ccc(O)cc1O)*; X2 = O=C(c1ccc(=O)oc1)*

What was measured:
PLC-γ1 = biological target: T1, PLC-γ1 (Bos taurus, UniProt P08487); assay: PLC-inhibiting activity (release of [3H]inositol phosphate from [3H]PIP2); assay type: biochemical, bovine; details: PI-PLC-γ1, 37° C., 10 minutes
T1 construct: A sample (PLC-γ1) was prepared from bovine thymus according to the method of Y. Homma et al; from tissue; host or cells: bovine thymus
T1 sequence (P08487 1-1291): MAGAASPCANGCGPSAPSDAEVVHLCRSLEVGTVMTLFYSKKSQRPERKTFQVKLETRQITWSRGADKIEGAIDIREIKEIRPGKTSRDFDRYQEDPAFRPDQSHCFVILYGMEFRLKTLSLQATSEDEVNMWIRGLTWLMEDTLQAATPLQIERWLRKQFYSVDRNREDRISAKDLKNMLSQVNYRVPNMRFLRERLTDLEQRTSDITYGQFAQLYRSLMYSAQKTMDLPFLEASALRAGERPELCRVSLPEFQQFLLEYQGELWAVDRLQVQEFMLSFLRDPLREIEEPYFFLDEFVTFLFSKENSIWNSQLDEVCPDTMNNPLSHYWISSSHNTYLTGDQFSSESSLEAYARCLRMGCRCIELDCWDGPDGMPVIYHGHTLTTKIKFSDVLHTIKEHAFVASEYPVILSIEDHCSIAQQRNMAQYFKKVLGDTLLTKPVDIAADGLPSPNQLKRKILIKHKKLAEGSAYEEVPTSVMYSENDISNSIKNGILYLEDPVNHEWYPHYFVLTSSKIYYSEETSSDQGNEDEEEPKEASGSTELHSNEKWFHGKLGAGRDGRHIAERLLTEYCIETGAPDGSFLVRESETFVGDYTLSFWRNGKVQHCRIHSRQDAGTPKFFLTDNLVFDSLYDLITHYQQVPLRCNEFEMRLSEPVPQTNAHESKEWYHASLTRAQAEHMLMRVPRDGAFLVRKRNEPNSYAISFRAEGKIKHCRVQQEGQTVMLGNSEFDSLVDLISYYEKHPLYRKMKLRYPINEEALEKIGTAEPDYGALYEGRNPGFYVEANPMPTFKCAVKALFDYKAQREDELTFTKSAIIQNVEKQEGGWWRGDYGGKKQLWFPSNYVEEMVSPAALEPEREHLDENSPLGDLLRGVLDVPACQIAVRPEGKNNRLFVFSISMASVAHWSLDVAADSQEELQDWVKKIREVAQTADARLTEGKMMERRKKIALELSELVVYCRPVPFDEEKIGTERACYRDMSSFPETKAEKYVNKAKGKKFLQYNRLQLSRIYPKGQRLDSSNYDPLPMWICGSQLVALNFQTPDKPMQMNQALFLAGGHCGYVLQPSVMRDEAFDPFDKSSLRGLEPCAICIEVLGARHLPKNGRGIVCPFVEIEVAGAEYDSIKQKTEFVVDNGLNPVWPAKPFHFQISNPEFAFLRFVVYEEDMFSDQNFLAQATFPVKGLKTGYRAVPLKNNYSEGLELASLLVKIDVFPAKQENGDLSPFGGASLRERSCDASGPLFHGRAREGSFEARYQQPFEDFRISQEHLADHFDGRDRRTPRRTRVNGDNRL
Protocol: A sample (PLC-γ1) was prepared from bovine thymus according to the method of Y. Homma et al. described in Biochemical Journal [(Biochem. J.), 269, 13 (1990)]. A solution having the composition listed in Table 1 below was prepared in advance on the ice and the reaction was begun with heating to 37° C. After incubation for 10 minutes, 2 ml of a solution mixture of chloroform/methanol (2:[…]) was added thereto to stop the reaction. The resulting inositol phosphate was extracted with 0.5 ml of 1N hydrochloric acid. Two-phase distribution was carried out by centrifugation (2000×g, 3 minutes), and the amount of ^3 H contained in 0.7 ml of the supernatant was measured with scintillation counter. […] The obtained value of specific radioactivity was defined as "A", the value of specific radioactivity obtained when an equivalent amount of water was added instead of the aqueous solution of the test peptide was defined as "B", the value of specific radioactivity obtained when an equivalent amount of water was added instead of the sample and the aqueous solution of the test peptide was defined as "C", and the inhibition rate (X) was determined according to the following equation. X(%)=[…]

KMS-4 cells = assay: Cell proliferation-inhibiting activity (BrdU incorporation, Amersham Cell Proliferation Detection Kit); assay type: cell-based; details: 17 hours with peptide, BrdU-stained cells
Protocol: The following procedure was carried out with an Amersham Cell Proliferation Detection Kit. First, cells [KMS-4; M. Nanba et al., International Journal of Cancer, 32, 697 (1983)] were suspended in a DMEM culture medium (product of Nissui Seiyaku) containing 10% fetal calf serum to a concentration of 1-2×10^4 cells/ml, and 1 ml of the above-mentioned cell suspension was put into each well of a 24-well plate (product of Corning Co.). The cells were cultured for 2 days in a CO2 incubator (37° C., 5% CO2). Next, the culture medium was exchanged with a DMEM medium containing 10% fetal calf serum, and then the test peptide was added thereto and culturing was carried out for 17 hours. The culture medium was again exchanged with a serum-free DMEM medium, 0.5 ml of a solution of the reagents labelled 5-bromo-2'-deoxyuridine (BrdU) and 5-fluoro-2'-deoxyuridine (FdU) [10:1] diluted 1000-fold with the same medium was added to each well, and cultured for 2 hours. The culture medium was removed, and the cells were immobilized with an acetic acid/ethanol solution. The immobilized cells were stained according to the method for the Amersham Cell Proliferation Kit, and then further stained with a 1% Giemsa solution (product of Merck Co.). The number of cells incorporating BrdU and the total cell count within 1 field of vision of the microscope (approximately 200 cells) were determined, and the proportion (%) of stained cells per field of vision was calculated. Furthermore, the same procedure was repeated 10 times, and the average value thereof was defined as the cell proliferation activity (%). The cell proliferation-inhibiting activity was calculated in the following manner. The proliferation activity without addition of peptide was defined as "A", the proliferation activity with addition of the test peptide was defined as "B", and the cell proliferation inhibition rate (X) was determined according to the following equation. X (%)=[…]

[1] = Concentration 120 μM (aqueous solution of test peptide), read-out: Inhibition rate (%)

| Molecule | inhibition at 120 µM (stock) (PLC-γ1; [1]) | Cell proliferation inhibition rate (%) (KMS-4 cells; Concentration 31 μM) | further results |
| --- | --- | --- | --- |
| CSCC[C@H](NC(=O)[C@H](CCCCN)NC(=O)[C@H](CCCNC(=N)N)NC(=O)[C@H](Cc1ccc(O)cc1)NC(=O)[C@H](CC(C)C)NC(=O)c1ccc(O)cc1O)C(=O)N[C@@H](CCCNC(=N)N)C(=O)N[C@@H](CC(C)C)C(=O)N[C@@H](CCCNC(=N)N)C(=O)N[C@@H](Cc1ccc(O)cc1)C(=O)N1CCC[C@H]1C(=O)N[C@H](C(N)=O)C(C)C [(I-14), (HO)2 C6 H3 CO-Leu-Tyr-Arg-Lys-Met-Arg-Leu-Arg-Tyr-Pro-Val-NH2] (X1-LYRKMRLRYPV-NH2) | 45% | 59% |  |
| H-YRKMRLRY-OH [Compound (I-7), H-Tyr-Arg-Lys-Met-Arg-Leu-Arg-Tyr-OH] | 70% |  |  |
| H-Leu-Tyr-Arg-Lys-Met-Arg-Leu-Arg-Tyr-Pro-Val-OH (H-LYRKMRLRYPV-OH) [Compound (I-5)] |  |  | Inhibition rate (%) (PLC-γ1; Concentration 125 μM (aqueous solution of test peptide)): 70% |
| CCCCCCCCC(=O)N[C@@H](CC(C)C)C(=O)N[C@@H](Cc1ccc(O)cc1)C(=O)N[C@@H](CCCNC(=N)N)C(=O)N[C@@H](CCCCN)C(=O)N[C@@H](CCSC)C(=O)N[C@@H](CCCNC(=N)N)C(=O)N[C@@H](CC(C)C)C(=O)N[C@@H](CCCNC(=N)N)C(=O)N[C@@H](Cc1ccc(O)cc1)C(=O)N1CCC[C@H]1C(=O)N[C@H](C(N)=O)C(C)C [(I-28), CH3 (CH2)7 CO-Leu-Tyr-Arg-Lys-Met-Arg-Leu-Arg-Tyr-Pro-Val-NH2] (Nonanoyl-LYRKMRLRYPV-NH2) | 78% | 22% |  |
| CCCCCCCC(=O)N[C@@H](CC(C)C)C(=O)N[C@@H](Cc1ccc(O)cc1)C(=O)N[C@@H](CCCNC(=N)N)C(=O)N[C@@H](CCCCN)C(=O)N[C@@H](CCSC)C(=O)N[C@@H](CCCNC(=N)N)C(=O)N[C@@H](CC(C)C)C(=O)N[C@@H](CCCNC(=N)N)C(=O)N[C@@H](Cc1ccc(O)cc1)C(=O)N1CCC[C@H]1C(=O)N[C@H](C(N)=O)C(C)C [(I-21), CH3 (CH2)6 CO-Leu-Tyr-Arg-Lys-Met-Arg-Leu-Arg-Tyr-Pro-Val-NH2] (Octanoyl-LYRKMRLRYPV-NH2) | 86% | 56% |  |
| H-YRKMRLRY-NH2 [Compound (I-9), H-Tyr-Arg-Lys-Met-Arg-Leu-Arg-Tyr-NH2] |  |  | inhibition at 850 µM (stock) (PLC-γ1; Concentration 850 μM (aqueous solution of test peptide), read-out: Inhibition rate (%)): 34%; Cell proliferation inhibition rate (%) (KMS-4 cells; Concentration 42 μM): 50% |
| H-Ser-Leu-Val-Glu-Leu-Val-Ser-Tyr-Tyr-Glu-Lys-His-Ala-OH (H-SLVELVSYYEKHA-OH) [Compound (I-6)] |  |  | Inhibition rate (%) (PLC-γ1; Concentration 105 μM (aqueous solution of test peptide)): 70% |
| H-SLVELVSYYEKHALYRKMRLRYPV-OH [Compound (I-1)] |  |  | inhibition at 15 µM (stock) (PLC-γ1; Concentration 15 μM (aqueous solution of test peptide), read-out: Inhibition rate (%)): 55%; inhibition at 55 µM (stock) (PLC-γ1; Concentration 55 μM (aqueous solution of test peptide), read-out: Inhibition rate (%)): 88% |
| CSCC[C@H](NC(=O)[C@H](CCCCN)NC(=O)[C@H](CCCNC(=N)N)NC(=O)[C@H](Cc1ccc(O)cc1)NC(=O)[C@H](CC(C)C)NC(=O)CCC1CCCC1)C(=O)N[C@@H](CCCNC(=N)N)C(=O)N[C@@H](CC(C)C)C(=O)N[C@@H](CCCNC(=N)N)C(=O)N[C@@H](Cc1ccc(O)cc1)C(=O)N1CCC[C@H]1C(=O)N[C@H](C(N)=O)C(C)C [(I-23), C5 H9 CH2 CH2 CO-Leu-Tyr-Arg-Lys-Met-Arg-Leu-Arg-Tyr-Pro-Val-NH2] ({Propanoyl(3-cPent)}-LYRKMRLRYPV-NH2) | 53% | 53% |  |
| CSCC[C@H](NC(=O)[C@H](CCCCN)NC(=O)[C@H](CCCNC(=N)N)NC(=O)[C@H](Cc1ccc(O)cc1)NC(=O)[C@H](CC(C)C)NC(=O)c1cc(O)ccc1O)C(=O)N[C@@H](CCCNC(=N)N)C(=O)N[C@@H](CC(C)C)C(=O)N[C@@H](CCCNC(=N)N)C(=O)N[C@@H](Cc1ccc(O)cc1)C(=O)N1CCC[C@H]1C(=O)N[C@H](C(N)=O)C(C)C [(I-15), (HO)2 C6 H3 CO-Leu-Tyr-Arg-Lys-Met-Arg-Leu-Arg-Tyr-Pro-Val-NH2] ({Benzoyl(2,5-(OH)2)}-LYRKMRLRYPV-NH2) | 41% | 66% |  |
| H-Glu-Lys-His-Ala-Leu-Tyr-Arg-Lys-Met -Arg-Leu-Arg-Tyr-Pro-Val-OH (H-EKHALYRKMRLRYPV-OH) [Compound (I-4)] |  |  | Inhibition rate (%) (PLC-γ1; Concentration 120 μM (aqueous solution of test peptide)): 73% |
| CSCC[C@H](NC(=O)[C@H](CCCCN)NC(=O)[C@H](CCCNC(=N)N)NC(=O)[C@H](Cc1ccc(O)cc1)NC(=O)[C@H](CC(C)C)NC(=O)c1cccc(O)c1O)C(=O)N[C@@H](CCCNC(=N)N)C(=O)N[C@@H](CC(C)C)C(=O)N[C@@H](CCCNC(=N)N)C(=O)N[C@@H](Cc1ccc(O)cc1)C(=O)N1CCC[C@H]1C(=O)N[C@H](C(N)=O)C(C)C [(I-13), (HO)2 C6 H3 CO-Leu-Tyr-Arg-Lys-Met-Arg-Leu-Arg-Tyr-Pro-Val-NH2] ({Benzoyl(2,3-diOH)}-LYRKMRLRYPV-NH2) |  | 69% | inhibition at 610 µM (stock) (PLC-γ1; Concentration 610 μM (aqueous solution of test peptide), read-out: Inhibition rate (%)): 89% |
| CSCC[C@H](NC(=O)[C@H](CCCCN)NC(=O)[C@H](CCCNC(=N)N)NC(=O)[C@H](Cc1ccc(O)cc1)NC(=O)[C@H](CC(C)C)NC(=O)c1ccc(=O)oc1)C(=O)N[C@@H](CCCNC(=N)N)C(=O)N[C@@H](CC(C)C)C(=O)N[C@@H](CCCNC(=N)N)C(=O)N[C@@H](Cc1ccc(O)cc1)C(=O)N1CCC[C@H]1C(=O)N[C@H](C(N)=O)C(C)C [(I-12), C5 H3 O2 CO-Leu-Tyr-Arg-Lys-Met-Arg-Leu-Arg-Tyr-Pro-Val-NH2] (X2-LYRKMRLRYPV-NH2) | 40% | 69% |  |
